Experimental data: ChEMBL document CHEMBL2203270, “POMA analyses as new efficient bioinformatics' platform to predict and optimise bioactivity of synthesized 3a,4-dihydro-3H-indeno[1,2-c]pyrazole-2-carboxamide/carbothioamide analogues” (Bioorg Med Chem Lett, 2012)
Values after ≈ are worked out from the molar mass of the structure shown.

Assays:
Aspergillus niger = assay: Antimicrobial activity against Aspergillus niger NCIM 1196 by broth dilution technique; format: functional
Candida albicans = assay: Antimicrobial activity against Candida albicans NCIM 3471 by broth dilution technique; format: functional
Pseudomonas aeruginosa = assay: Antimicrobial activity against Pseudomonas aeruginosa ATCC 10145 by broth dilution technique; format: functional
Escherichia coli = assay: Antimicrobial activity against Escherichia coli NCIM 5051 by broth dilution technique; format: functional
Bacillus subtilis = assay: Antimicrobial activity against Bacillus subtilis NCIM 2439 by broth dilution technique; format: functional
Staphylococcus aureus = assay: Antimicrobial activity against Staphylococcus aureus NCIM 2079 by broth dilution technique; format: functional
[1] = system: Human immunodeficiency virus 2; assay: Antiviral activity against HIV-2 ROD infected in MT4 cells assessed as protection against virus-induced cytopathicity relative to control; format: functional; settings: Human immunodeficiency virus 2, ISOLATE ROD
[2] = Cytotoxicity against mock-infected human MT4 cells assessed as decrease in cell viability by MTT assay; format: cell-based
[3] = system: Human immunodeficiency virus 1; assay: Antiviral activity against HIV-1 3B infected in MT4 cells assessed as protection against virus-induced cytopathicity relative to control; format: functional; settings: Human immunodeficiency virus 1, 3B
[4] = system: Human immunodeficiency virus 1; assay: Antiviral activity against HIV-1 3B infected in MT4 cells assessed as inhibition of virus-induced cytopathicity; format: functional, organism-based; settings: Human immunodeficiency virus 1, 3B
[5] = system: Human immunodeficiency virus 2; assay: Antiviral activity against HIV-2 ROD infected in MT4 cells assessed as inhibition of virus-induced cytopathicity; format: functional, organism-based; settings: Human immunodeficiency virus 2, ISOLATE ROD

SMILES: COc1cc2c(cc1OC)C1=NN(C(N)=S)C(c3ccccc3)C1C2 (centres undefined)
- MFC (Aspergillus niger): > 512 µg/mL
- MIC (Aspergillus niger): 128 µg/mL (≈ 362 µM)
- MFC (Candida albicans): > 512 µg/mL
- MIC (Candida albicans): 128 µg/mL (≈ 362 µM)
- MBC (Pseudomonas aeruginosa): > 512 µg/mL
- MIC (Pseudomonas aeruginosa): 256 µg/mL (≈ 724 µM)
- MBC (Escherichia coli): > 512 µg/mL
- MIC (Escherichia coli): 128 µg/mL (≈ 362 µM)
- MBC (Bacillus subtilis): > 512 µg/mL
- MIC (Bacillus subtilis): 256 µg/mL (≈ 724 µM)
- MBC (Staphylococcus aureus): > 512 µg/mL
- MIC (Staphylococcus aureus): 256 µg/mL (≈ 724 µM)
- Emax [1]: 12%
- CC50 [2]: 28.4 µM
- Emax [3]: 2%
- IC50 [4]: > 28.4 µM
- IC50 [5]: > 28.4 µM

SMILES: COc1ccc(C2C3Cc4cc(OC)c(OC)cc4C3=NN2C(=O)Nc2ccc(Br)cc2)cc1OC (centres undefined)
- Emax [1]: 39%
- CC50 [2]: 150 µM
- Emax [3]: 15%
- IC50 [4]: > 150 µM
- IC50 [5]: > 150 µM

SMILES: COc1cc2c(cc1OC)C1=NN(C(=O)Nc3ccc(C)cc3C)C(c3ccncc3)C1C2 (centres undefined)
- Emax [1]: 4%
- CC50 [2]: 25.2 µM
- Emax [3]: 1%
- IC50 [4]: > 25.2 µM
- IC50 [5]: > 25.2 µM

SMILES: COc1ccc(C2C3Cc4cc(OC)c(OC)cc4C3=NN2C(N)=S)cc1OC (centres undefined)
- MFC (Aspergillus niger): 512 µg/mL (≈ 1240 µM)
- MIC (Aspergillus niger): 16 µg/mL (≈ 38.7 µM)
- MFC (Candida albicans): 512 µg/mL (≈ 1240 µM)
- MIC (Candida albicans): 16 µg/mL (≈ 38.7 µM)
- MBC (Pseudomonas aeruginosa): > 512 µg/mL
- MIC (Pseudomonas aeruginosa): 128 µg/mL (≈ 310 µM)
- MBC (Escherichia coli): > 512 µg/mL
- MIC (Escherichia coli): 64 µg/mL (≈ 155 µM)
- MBC (Bacillus subtilis): > 512 µg/mL
- MIC (Bacillus subtilis): 128 µg/mL (≈ 310 µM)
- MBC (Staphylococcus aureus): > 512 µg/mL
- MIC (Staphylococcus aureus): 128 µg/mL (≈ 310 µM)
- Emax [1]: 11%
- CC50 [2]: 158 µM
- Emax [3]: 4%
- IC50 [4]: > 158 µM
- IC50 [5]: > 158 µM

SMILES: Cc1cn([C@H]2C[C@H](N=[N+]=[N-])[C@@H](CO)O2)c(=O)[nH]c1=O [ZIDOVUDINE]
- Emax [1]: 66%
- CC50 [2]: > 93.5 µM
- Emax [3]: 90%

SMILES: COc1cc2c(cc1OC)C1=NN(C(=O)Nc3ccc(Cl)cc3)C(c3ccncc3)C1C2 (centres undefined)
- Emax [1]: 5%
- CC50 [2]: 4.83 µM
- Emax [3]: 4%
- IC50 [4]: > 4.83 µM
- IC50 [5]: > 4.83 µM

SMILES: COc1cc2c(cc1OC)C1=NN(C(=O)Nc3ccc(Br)cc3)C(c3ccc(F)cc3)C1C2 (centres undefined)
- Emax [1]: 16%
- CC50 [2]: 108 µM
- Emax [3]: 8%
- IC50 [4]: > 108 µM
- IC50 [5]: > 108 µM

SMILES: COc1cc2c(cc1OC)C1=NN(C(N)=O)C(c3ccccc3)C1C2 (centres undefined)
- MFC (Aspergillus niger): > 512 µg/mL
- MIC (Aspergillus niger): 256 µg/mL (≈ 759 µM)
- MFC (Candida albicans): > 512 µg/mL
- MIC (Candida albicans): 128 µg/mL (≈ 379 µM)
- MBC (Pseudomonas aeruginosa): > 512 µg/mL
- MIC (Pseudomonas aeruginosa): 256 µg/mL (≈ 759 µM)
- MBC (Escherichia coli): > 512 µg/mL
- MIC (Escherichia coli): 256 µg/mL (≈ 759 µM)
- MBC (Bacillus subtilis): > 512 µg/mL
- MIC (Bacillus subtilis): 256 µg/mL (≈ 759 µM)
- MBC (Staphylococcus aureus): > 512 µg/mL
- MIC (Staphylococcus aureus): 256 µg/mL (≈ 759 µM)
- Emax [1]: 11%
- CC50 [2]: 259 µM
- Emax [3]: 2%
- IC50 [4]: > 259 µM
- IC50 [5]: > 259 µM

SMILES: COc1ccc(C2C3Cc4cc(OC)c(OC)cc4C3=NN2C(=O)Nc2ccc(Br)cc2)cc1 (centres undefined)
- Emax [1]: 5%
- CC50 [2]: 136 µM
- Emax [3]: 3%
- IC50 [4]: > 136 µM
- IC50 [5]: > 136 µM

SMILES: COc1cc2c(cc1OC)C1=NN(C(=O)Nc3ccc(F)cc3)C(c3ccncc3)C1C2 (centres undefined)
- Emax [1]: 2%
- CC50 [2]: 31.9 µM
- Emax [3]: 2%
- IC50 [4]: > 31.9 µM
- IC50 [5]: > 31.9 µM

SMILES: COc1cc2c(cc1OC)C1=NN(C(=O)Nc3ccc(C)cc3C)C(c3ccccc3Cl)C1C2 (centres undefined)
- Emax [1]: 5%
- CC50 [2]: 11 µM
- Emax [3]: 1%
- IC50 [4]: > 11 µM
- IC50 [5]: > 11 µM

SMILES: COc1cc2c(cc1OC)C1=NN(C(=O)Nc3ccc(C)cc3C)C(c3ccc(F)cc3)C1C2 (centres undefined)
- Emax [1]: 12%
- CC50 [2]: 198 µM
- Emax [3]: 4%
- IC50 [4]: > 198 µM
- IC50 [5]: > 198 µM

SMILES: COc1cc2c(cc1OC)C1=NN(C(=O)Nc3ccc(F)cc3)C(c3ccccc3)C1C2 (centres undefined)
- Emax [1]: 7%
- CC50 [2]: 68.6 µM
- Emax [3]: 3%
- IC50 [4]: > 68.6 µM
- IC50 [5]: > 68.6 µM

SMILES: COc1cc2c(cc1OC)C1=NN(C(=O)Nc3c(C)cccc3C)C(c3ccccc3Cl)C1C2 (centres undefined)
- Emax [1]: 9%
- CC50 [2]: 159 µM
- Emax [3]: 4%
- IC50 [4]: > 159 µM
- IC50 [5]: > 159 µM

SMILES: COc1cc2c(cc1OC)C1=NN(C(=O)Nc3ccc(Cl)cc3)C(c3ccccc3)C1C2 (centres undefined)
- Emax [1]: 19%
- CC50 [2]: 28.4 µM
- Emax [3]: 2%
- IC50 [4]: > 28.4 µM
- IC50 [5]: > 28.4 µM

SMILES: COc1cc2c(cc1OC)C1=NN(C(=O)Nc3ccc(Br)cc3)C(c3ccccc3)C1C2 (centres undefined)
- Emax [1]: 10%
- CC50 [2]: 86 µM
- Emax [3]: 3%
- IC50 [4]: > 86 µM
- IC50 [5]: > 86 µM

SMILES: COc1cc2c(cc1OC)C1=NN(C(=O)Nc3ccc(Br)cc3)C(c3ccccc3Cl)C1C2 (centres undefined)
- Emax [1]: 2%
- CC50 [2]: 11.5 µM
- Emax [3]: 2%
- IC50 [4]: > 11.5 µM
- IC50 [5]: > 11.5 µM

SMILES: COc1ccc(C2C3Cc4cc(OC)c(OC)cc4C3=NN2C(=O)Nc2ccc(Cl)cc2)cc1OC (centres undefined)
- Emax [1]: 9%
- CC50 [2]: 106 µM
- Emax [3]: 4%
- IC50 [4]: > 106 µM
- IC50 [5]: > 106 µM

SMILES: COc1ccc(C2C3Cc4cc(OC)c(OC)cc4C3=NN2C(=O)Nc2ccc(F)cc2)cc1 (centres undefined)
- Emax [1]: 9%
- CC50 [2]: 132 µM
- Emax [3]: 7%
- IC50 [4]: > 132 µM
- IC50 [5]: > 132 µM

SMILES: COc1cc2c(cc1OC)C1=NN(C(=O)Nc3ccc(C)cc3C)C(c3ccccc3)C1C2 (centres undefined)
- Emax [1]: 7%
- CC50 [2]: 33.4 µM
- Emax [3]: 5%
- IC50 [4]: > 33.4 µM
- IC50 [5]: > 33.4 µM

SMILES: COc1cc2c(cc1OC)C1=NN(C(=O)Nc3ccc(Br)cc3)C(c3ccncc3)C1C2 (centres undefined)
- Emax [1]: 1%
- CC50 [2]: 26.5 µM
- Emax [3]: 1%
- IC50 [4]: > 26.5 µM
- IC50 [5]: > 26.5 µM

SMILES: COc1cc2c(cc1OC)C1=NN(C(=O)Nc3ccc(F)c(Cl)c3)C(c3ccncc3)C1C2 (centres undefined)
- Emax [1]: 2%
- CC50 [2]: 29.5 µM
- Emax [3]: 4%
- IC50 [4]: > 29.5 µM
- IC50 [5]: > 29.5 µM

SMILES: COc1ccc(C2C3Cc4cc(OC)c(OC)cc4C3=NN2C(=O)Nc2ccc(C)cc2C)cc1OC (centres undefined)
- Emax [1]: 16%
- CC50 [2]: 145 µM
- Emax [3]: 16%
- IC50 [4]: > 145 µM
- IC50 [5]: > 145 µM

SMILES: COc1cc2c(cc1OC)C1=NN(C(=O)Nc3c(C)cccc3C)C(c3ccc(F)cc3)C1C2 (centres undefined)
- Emax [1]: 4%
- CC50 [2]: 9.36 µM
- Emax [3]: 3%
- IC50 [4]: > 9.36 µM
- IC50 [5]: > 9.36 µM

SMILES: COc1ccc(C2C3Cc4cc(OC)c(OC)cc4C3=NN2C(=O)Nc2c(C)cccc2C)cc1 (centres undefined)
- Emax [1]: 6%
- CC50 [2]: 169 µM
- Emax [3]: 5%
- IC50 [4]: > 169 µM
- IC50 [5]: > 169 µM

SMILES: COc1cc2c(cc1OC)C1=NN(C(=O)Nc3ccc(F)cc3)C(c3ccccc3Cl)C1C2 (centres undefined)
- Emax [1]: 1%
- CC50 [2]: 9.09 µM
- Emax [3]: 2%
- IC50 [4]: > 9.09 µM
- IC50 [5]: > 9.09 µM

SMILES: COc1cc2c(cc1OC)C1=NN(C(=O)Nc3c(C)cccc3C)C(c3ccccc3)C1C2 (centres undefined)
- Emax [1]: 12%
- CC50 [2]: 211 µM
- Emax [3]: 4%
- IC50 [4]: > 211 µM
- IC50 [5]: > 211 µM

SMILES: COc1cc2c(cc1OC)C1=NN(C(=O)Nc3ccc(F)cc3)C(c3ccc(F)cc3)C1C2 (centres undefined)
- Emax [1]: 14%
- CC50 [2]: 119 µM
- Emax [3]: 4%
- IC50 [4]: > 119 µM
- IC50 [5]: > 119 µM

SMILES: COc1ccc(C2C3Cc4cc(OC)c(OC)cc4C3=NN2C(=O)Nc2c(C)cccc2C)cc1OC (centres undefined)
- Emax [1]: 37%
- CC50 [2]: 182 µM
- Emax [3]: 11%
- IC50 [4]: > 182 µM
- IC50 [5]: > 182 µM

SMILES: COc1ccc(C2C3Cc4cc(OC)c(OC)cc4C3=NN2C(=O)Nc2ccc(F)cc2)cc1OC (centres undefined)
- Emax [1]: 37%
- CC50 [2]: 208 µM
- Emax [3]: 11%
- IC50 [4]: > 208 µM
- IC50 [5]: > 208 µM
